Measurements from US9499493B2, “2,4-pyrimidinediamine compounds and their uses” (Rigel Pharmaceuticals, Inc., priority 2002, dated 2016).

System: IgE-induced degranulation of tissue mast cells
Assay: Mouse model of passive cutaneous anaphylaxis (PCA)
Format: in vivo
Conditions: for % Inhibition (PCA) / Plasma level: PO, 1.5% Avicel/water, pretreatment 15 min
Procedure: This model provides a direct measure of IgE-induced degranulation of tissue mast cells. In this model, IgE primed animals are exposed to an allergen challenge, and the change in permeability of dermal vasculature that results from histamine release from mast cells is measured by change in the amount of dye leakage into surrounding tissue. Inhibition of mediator release by compounds that modulate mast cell degranulation is easily measured by extracting the dye from the tissue.
In the PCA assay mice are passively sensitized by intradermal injection with anti-dinitrophenol (DNP) IgE antibodies (Day −1). At predetermined times animals are treated with the test agent (Day 0). The modulatory effect of the agent on cutaneous mast cell degranulation is measured following intravenous injection of DNP conjugated to human serum albumin (HSA-DNP), together with Evans blue dye. The resulting cross-linking of the IgE receptor and subsequent mast cell degranulation-induced increase in vascular permeability is determined by measuring the amount of dye extravasation into the tissue. Dye is extracted from the tissue by formamide, and the absorbance of this extract is read at 620 nm.

Compound: CNC(=O)COc1cccc(Nc2ncc(F)c(Nc3ccc4c(c3)NCCO4)n2)c1 [R921219, N4-(1,4-Benzoxazin-6-yl)-5-fluoro-N2-[3-(N-methylamino)carbonylmethyleneoxyphenyl]-2,4-pyrimidinediamine]
- % Inhibition (PCA) (30 mg/kg): 25%
- Plasma level (30 mg/kg): 400 ng/mL
- % Inhibition (PCA) (100 mg/kg): 68%
- Plasma level (100 mg/kg): 4000 ng/mL
- % Inhibition (PCA) (300 mg/kg): 92%
- Plasma level (300 mg/kg): 11000 ng/mL
- circulating exposure levels at which active (mouse, in vivo): approximately 10 μg/ml
- FcεR-mediated vascular leakage with increasing doses (in words) (solution (67% PEG/33% citrate buffer) or aqueous suspension (1.5% Avicel)): dose-dependent inhibition
